Measurements published in PMC8364686, “Safety, tolerability, pharmacokinetics and pharmacodynamics of single oral doses of BI 187004, an inhibitor of 11beta-hydroxysteroid dehydrogenase-1, in healthy male volunteers with overweight or obesity” (Clinical Diabetes and Endocrinology, 2021).
Entries after “also recorded” stand apart in the source; their conditions may differ.

What was measured:
[1] = system: hypothalamus–pituitary–adrenal axis hormones; assay: Hormones of the HPA axis: difference from baseline; assay type: in vivo, human
Protocol: (§1) Safety and tolerability of BI 187004 were assessed in a descriptive way using the following investigations: recording of adverse events, clinical laboratory parameters (haematology, coagulation, enzymes, substrates, electrolytes, hormones, and urinalysis), vital signs (blood pressure, puls rate), 12-lead ECG (electrocardiogram) with special attention to QTc prolongation, and physical examination (occurrence of findings).

[2] = system: healthy male volunteers with overweight or obesity; assay: Safety and tolerability (adverse events, clinical laboratory, vital signs, ECG); assay type: in vivo, human
Protocol: as §1

Structure (SMILES): N#Cc1ccc2c(c1)[C@H]1CCCN(C(=O)c3ccc4[nH]cnc4c3)[C@H]1C2 [BI 187004]
- SHBG mean difference from baseline ([1]; 10 mg single oral dose, 96:00): 0.2 nmol/L
- Total Testosterone mean difference from baseline ([1]; 10 mg single oral dose, 96:00): -2.0 nmol/L
- ACTH mean difference from baseline ([1]; 20 mg single oral dose, 24:00): 1.53 pmol/L
- Androstenedione mean difference from baseline ([1]; 20 mg single oral dose, 24:00): 3.7 nmol/L
- Cortisol mean difference from baseline ([1]; 20 mg single oral dose, 24:00): 18.4 nmol/L
- DHEA-s mean difference from baseline ([1]; 20 mg single oral dose, 24:00): 2.2 µmol/L
- SHBG mean difference from baseline ([1]; 20 mg single oral dose, 24:00): 2.9 nmol/L
- Total Testosterone mean difference from baseline ([1]; 20 mg single oral dose, 24:00): -1.3 nmol/L
- ACTH mean difference from baseline ([1]; 20 mg single oral dose, 96:00): -0.58 pmol/L
- Androstenedione mean difference from baseline ([1]; 20 mg single oral dose, 96:00): 3.8 nmol/L
- Cortisol mean difference from baseline ([1]; 20 mg single oral dose, 96:00): -34.1 nmol/L
- DHEA-s mean difference from baseline ([1]; 20 mg single oral dose, 96:00): 2.1 µmol/L
- SHBG mean difference from baseline ([1]; 20 mg single oral dose, 96:00): 1.3 nmol/L
- Total Testosterone mean difference from baseline ([1]; 20 mg single oral dose, 96:00): -1.0 nmol/L
- ACTH mean difference from baseline ([1]; 40 mg single oral dose, 24:00): 1.44 pmol/L
- Androstenedione mean difference from baseline ([1]; 40 mg single oral dose, 24:00): 3.7 nmol/L
- Cortisol mean difference from baseline ([1]; 40 mg single oral dose, 24:00): -48.8 nmol/L
- DHEA-s mean difference from baseline ([1]; 40 mg single oral dose, 24:00): 1.7 µmol/L
- SHBG mean difference from baseline ([1]; 40 mg single oral dose, 24:00): 0.6 nmol/L
- Total Testosterone mean difference from baseline ([1]; 40 mg single oral dose, 24:00): -0.5 nmol/L
- ACTH mean difference from baseline ([1]; 40 mg single oral dose, 96:00): -0.01 pmol/L
- Androstenedione mean difference from baseline ([1]; 40 mg single oral dose, 96:00): 0.1 nmol/L
- Cortisol mean difference from baseline ([1]; 40 mg single oral dose, 96:00): -75.5 nmol/L
- DHEA-s mean difference from baseline ([1]; 40 mg single oral dose, 96:00): 2.3 µmol/L
- SHBG mean difference from baseline ([1]; 40 mg single oral dose, 96:00): -1.8 nmol/L
- Total Testosterone mean difference from baseline ([1]; 40 mg single oral dose, 96:00): -0.8 nmol/L
- ACTH mean difference from baseline ([1]; 80 mg single oral dose, 24:00): 4.69 pmol/L
- Androstenedione mean difference from baseline ([1]; 80 mg single oral dose, 24:00): 8.1 nmol/L
- Cortisol mean difference from baseline ([1]; 80 mg single oral dose, 24:00): 102.6 nmol/L
- DHEA-s mean difference from baseline ([1]; 80 mg single oral dose, 24:00): 2.6 µmol/L
- SHBG mean difference from baseline ([1]; 80 mg single oral dose, 24:00): 2.1 nmol/L
- Total Testosterone mean difference from baseline ([1]; 80 mg single oral dose, 24:00): 0.8 nmol/L
- ACTH mean difference from baseline ([1]; 80 mg single oral dose, 96:00): 1.36 pmol/L
- Androstenedione mean difference from baseline ([1]; 80 mg single oral dose, 96:00): 0.5 nmol/L
- Cortisol mean difference from baseline ([1]; 80 mg single oral dose, 96:00): -64.4 nmol/L
- DHEA-s mean difference from baseline ([1]; 80 mg single oral dose, 96:00): 2.4 µmol/L
- SHBG mean difference from baseline ([1]; 80 mg single oral dose, 96:00): -1.3 nmol/L
- Total Testosterone mean difference from baseline ([1]; 80 mg single oral dose, 96:00): 0.6 nmol/L
- ACTH mean difference from baseline ([1]; 160 mg single oral dose, 24:00): 1.34 pmol/L
- Androstenedione mean difference from baseline ([1]; 160 mg single oral dose, 24:00): 2.6 nmol/L
- Cortisol mean difference from baseline ([1]; 160 mg single oral dose, 24:00): -49.2 nmol/L
- DHEA-s mean difference from baseline ([1]; 160 mg single oral dose, 24:00): 1.6 µmol/L
- SHBG mean difference from baseline ([1]; 160 mg single oral dose, 24:00): 1.9 nmol/L
- Total Testosterone mean difference from baseline ([1]; 160 mg single oral dose, 24:00): 1.0 nmol/L
- ACTH mean difference from baseline ([1]; 160 mg single oral dose, 96:00): 0.05 pmol/L
- Androstenedione mean difference from baseline ([1]; 160 mg single oral dose, 96:00): 1.5 nmol/L
- Cortisol mean difference from baseline ([1]; 160 mg single oral dose, 96:00): -69.9 nmol/L
- DHEA-s mean difference from baseline ([1]; 160 mg single oral dose, 96:00): 2.2 µmol/L
- SHBG mean difference from baseline ([1]; 160 mg single oral dose, 96:00): -0.8 nmol/L
- Total Testosterone mean difference from baseline ([1]; 160 mg single oral dose, 96:00): 2.4 nmol/L
- ACTH mean difference from baseline ([1]; 240 mg single oral dose, 24:00): 0.87 pmol/L
- Androstenedione mean difference from baseline ([1]; 240 mg single oral dose, 24:00): 5.0 nmol/L
- Cortisol mean difference from baseline ([1]; 240 mg single oral dose, 24:00): -7.3 nmol/L
- DHEA-s mean difference from baseline ([1]; 240 mg single oral dose, 24:00): 1.6 µmol/L
- SHBG mean difference from baseline ([1]; 240 mg single oral dose, 24:00): 2.3 nmol/L
- Total Testosterone mean difference from baseline ([1]; 240 mg single oral dose, 24:00): -2.8 nmol/L
- ACTH mean difference from baseline ([1]; 240 mg single oral dose, 96:00): -0.27 pmol/L
- Androstenedione mean difference from baseline ([1]; 240 mg single oral dose, 96:00): 2.7 nmol/L
- Cortisol mean difference from baseline ([1]; 240 mg single oral dose, 96:00): -5.1 nmol/L
- DHEA-s mean difference from baseline ([1]; 240 mg single oral dose, 96:00): 2.3 µmol/L
- SHBG mean difference from baseline ([1]; 240 mg single oral dose, 96:00): 2.5 nmol/L
- Total Testosterone mean difference from baseline ([1]; 240 mg single oral dose, 96:00): -2.4 nmol/L
- ACTH mean difference from baseline ([1]; 360 mg single oral dose, 24:00): 1.30 pmol/L
- Androstenedione mean difference from baseline ([1]; 360 mg single oral dose, 24:00): 3.2 nmol/L
- Cortisol mean difference from baseline ([1]; 360 mg single oral dose, 24:00): -40.0 nmol/L
- DHEA-s mean difference from baseline ([1]; 360 mg single oral dose, 24:00): 1.2 µmol/L
- SHBG mean difference from baseline ([1]; 360 mg single oral dose, 24:00): 0.9 nmol/L
- Total Testosterone mean difference from baseline ([1]; 360 mg single oral dose, 24:00): -0.3 nmol/L
- ACTH mean difference from baseline ([1]; 360 mg single oral dose, 96:00): 0.38 pmol/L
- Androstenedione mean difference from baseline ([1]; 360 mg single oral dose, 96:00): -0.3 nmol/L
- Cortisol mean difference from baseline ([1]; 360 mg single oral dose, 96:00): -132.9 nmol/L
- DHEA-s mean difference from baseline ([1]; 360 mg single oral dose, 96:00): 1.6 µmol/L
- SHBG mean difference from baseline ([1]; 360 mg single oral dose, 96:00): -2.2 nmol/L
- Total Testosterone mean difference from baseline ([1]; 360 mg single oral dose, 96:00): 0.7 nmol/L
- Incidence of headache ([2]; 3 out of 54 subjects receiving BI 187004): 5.6%
- Incidence of drug-related adverse events ([2]; all 9 BI 187004 dose groups (9 subjects)): 16.7%
- Subjects reporting at least 1 adverse event ([2]; all BI 187004 dose groups (15 subjects)): 27.8%
- Clinical laboratory evaluations, vital signs, ECG findings ([2]; single oral doses 2.5–360 mg): No clinically relevant deviations; also recorded: no notable findings
- Deaths, AEs leading to discontinuation, serious AEs ([2]; single oral doses 2.5–360 mg): no serious AEs
- Hypoglycemic episodes ([2]; single oral doses 2.5–360 mg): No hypoglycemic episodes
- Safety and tolerability ([2]; single oral doses 2.5–360 mg): well tolerated and safe; also recorded: safe and well tolerated
